Here are results for three compounds from patent publication US10919927B2, “Immune stimulating macrolide” (ISR IMMUNE SYSTEM REGULATION HOLDING AB (PUBL), priority 2017, dated 2021).

Data set [1] has as its system E. coli, S. salivarius, L. casei, B. longum or M. luteus. Kind of data set: Direct antibacterial activity, all bacterial strains tested (summary). Format: cell-based. The method, then:
The bioactivity of macrolide compounds against 4 strains of common gut bacteria (Escherichia coli, Streptococcus salivarius subsp. salivarius, Lactobacillus casei and Bifidobacterium longum subsp. infantis) and common mammalian skin isolate Micrococcus luteus, was assessed using the Minimum Inhibitory Concentration (MIC) assay. Bacterial strains were purchased from DSMZ (Brunswick, Germany) except M. luteus which was obtained from NCIMB, and stored in 20% glycerol at −80° C. Stock solutions (100% DMSO) of positive controls (azithromycin and erythromycin), and of test compounds 1 and 2 were diluted in broth to working stock concentrations of 256 μg/ml (final assay testing concentration range 128 μg/ml to 0.00391 μg/ml). Stock solutions of all other compounds were diluted in broth to working stock concentrations of 128 μg/ml (final assay testing concentration range 64 μg/ml to 0.00195 μg/ml). Bacterial strains were cultivated in appropriate broth in an anaerobic chamber at 37° C., except for M. luteus which was incubated aerobically at 37° C. 18 h cultures were diluted in broth to an OD595 of 0.1 and then further diluted 1:10. In 96-well plates, in duplicate, 200 μl working stock of test compound was transferred to well 1 and serially diluted (1:2) in broth. 100 μl bacterial suspension was aliquoted into each well and mixed thoroughly. Appropriate sterility controls were included and plates were incubated in an anaerobic chamber, or aerobically (M. luteus) at 37° C. for 18 h. The MIC was determined to be the concentration of test compound in the first well with no visible growth.

The target in a further data set is T1, human TLR2 (Homo sapiens, UniProt O60603).
T1 construct: host or cells: recombinant HEK-293-TLR cell lines
T1 sequence (O60603 21-784): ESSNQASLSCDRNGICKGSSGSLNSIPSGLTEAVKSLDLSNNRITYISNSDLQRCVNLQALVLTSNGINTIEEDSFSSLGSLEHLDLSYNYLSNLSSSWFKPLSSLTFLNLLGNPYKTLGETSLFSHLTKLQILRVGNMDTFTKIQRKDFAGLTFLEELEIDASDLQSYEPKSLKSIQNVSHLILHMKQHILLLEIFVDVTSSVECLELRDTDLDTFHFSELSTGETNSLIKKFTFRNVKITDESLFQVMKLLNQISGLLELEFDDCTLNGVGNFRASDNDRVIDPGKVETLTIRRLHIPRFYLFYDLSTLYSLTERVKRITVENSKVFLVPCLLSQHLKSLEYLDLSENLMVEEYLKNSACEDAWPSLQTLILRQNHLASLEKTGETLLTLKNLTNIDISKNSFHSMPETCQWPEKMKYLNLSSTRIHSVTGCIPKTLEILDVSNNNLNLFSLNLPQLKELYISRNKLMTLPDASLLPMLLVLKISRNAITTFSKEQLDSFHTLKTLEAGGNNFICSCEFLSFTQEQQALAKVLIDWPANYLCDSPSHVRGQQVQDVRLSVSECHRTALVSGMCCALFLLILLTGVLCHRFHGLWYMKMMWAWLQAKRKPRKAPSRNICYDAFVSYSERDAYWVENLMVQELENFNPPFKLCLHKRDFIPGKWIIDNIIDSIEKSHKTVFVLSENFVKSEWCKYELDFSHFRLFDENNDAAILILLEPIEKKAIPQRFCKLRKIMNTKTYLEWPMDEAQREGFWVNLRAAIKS
Kind of data set: TLR2 reporter assay (HEK-293-TLR cells, SEAP). Particulars: concentrations 5 uM up to 20 uM. Format: cell-based. The method, then:
These cell lines functionally over-express human TLR2 protein as well as a reporter gene which is a secreted alkaline phosphatase (SEAP). The production of this reporter gene is driven by an NFkB inducible promoter. The TLR reporter cell lines activation results are given as optical density values (OD).
20 μl of each test article were used to stimulate the hTLR2 reporter cell lines in a 200 μl of final reaction volume. Samples were tested in duplicate, with at least two concentrations tested—20 uM and 10 uM.
Compounds were tested using a TLR2 reporter assay (see general methods) that measured for stimulation of the TLR2 receptor. Stimulatory effect was measured as an increase in optical density, as compared to the negative control (OD) due to release of secreted alkaline phosphatase (SEAP) and is shown in table 2.
In general terms: In a reporter assay the amount or activity of a reporter protein is the signal.

Data set [2] is described as follows: Caco-2 bidirectional permeability assay. It is filed as in vitro ADME. Particulars: human, Caco-2, 10 μM, 90 minutes. The method, then:
(§1) 10 μM Test article was added to the apical (A) surface of Caco-2 cell monolayers (in HBSS buffer with 0.3% DMSO and 5 μM LY at 37 degrees C.) and compound permeation into the basolateral (B) compartment measured following 90 minutes incubation. This was also performed in the reverse direction (basolateral to apical) to investigate active transport. LC-MS/MS is used to quantify levels of both the test and standard control compounds. Efflux ratio was calculated by dividing the B to A permeability by the […]. Drug permeability: Papp=(VA/(Area×time))×([drug]accepter/(([drug]initial,donor)×Dilution Factor). Assessment of Metabolic Stability (Microsome Stability Assay)
(§2) Compounds were tested using a standard caco-2 bidirectional permeability assay (see general methods).

For the next data set, the system named is Caco-2 cell monolayers. Kind of data set: Caco-2 bidirectional permeability assay. Format: in vitro ADME. The method, then:
as §1, §2

In data set [3] the test system is PBMCs from cytomegalovirus (CMV) infected donors. The data set can be described thus: Cytomegalovirus (CMV) antigen cultures. It is filed as cell-based, Human. The method, then: Human peripheral blood mononuclear cells (PBMCs) were purified from healthy CMV positive donors with Ficoll-Paque density centrifugation. The PBMC were labeled with 5 μM celltrace violet (Invitrogen) in PBS for 15 minutes and then washed with complete cell culture medium. The labeled PBMC was cultured in the presence of a peptide library spanning the CMV pp65 protein (1 μg peptide/ml, JPT) in AIM-V media (Invitrogen) supplemented with L-glutamine, Sodium pyruvate (Sigma), 10% fetal bovine serum, 100 μg/mL penicillin and 100 μg/mL streptomycin (Hyclone) for 6-8 days in 37° C., 5% CO2. Cell proliferation was assessed with flow cytomtery using a BD FACS Canto II flow cytometer.
Study 7: Virus specific T cell proliferation was also affected by compound 1. […] CD127 is crucial for T cell homeostasis, differentiation and function, and reduced expression correlates with disease severity in HIV and other chronic viral diseases (Crawley et al Sem Imm 2012).
Study 8: PBMCs from CMV infected donors cultured in the presence of CMV antigen where either untreated or exposed to compound 1 or compound 2 for 3 days.

Another data set relates to PBMCs. Kind of data set: Cytokine secretion from PBMC, cytometric bead assay. It is filed as cell-based, Human. Particulars: 2 days. The source says: (§3) Study 10: PBMCs and macrophages where exposed to compounds 1 or 2 for 2 days (FIG. 11).
(§4) Study 11: PBMCs and macrophages where exposed to compounds 1 and 2 for 2 days.
(§5) Study 12: PBMCs, macrophages and CD4+ T cells where exposed to compounds 1 and 2 for 2 days.

The subject of data set [4] is Macrophages from healthy donors. The data set can be described thus: Cytokine secretion from macrophages, cytometric bead assay. Format: cell-based, Human. How it is done:
Study 9: Macrophages from healthy donors where exposed to compounds 1 or 2 for 48 hours. […] Compound 1 is therefore able to induce IFN-gamma secretion in macrophages from healthy donors.
as §3, §4, §5

The next data set relates to CD4+ T cells. The data set can be described thus: IL-1beta secretion from CD4+ T cells, cytometric bead assay. It is filed as cell-based, Human. Particulars: 2 days.
From the text: as §5

In data set [5] the test system is C57bl/6 mice. The data set can be described thus: CD25 high cells in blood of mice after i.v. injection. Format: in vivo. The conditions noted are these: highest dose of 5 mg/kg, 24 h. The method, then: FIG. 14: % CD25 high cells in blood of C57bl/6 mice injected 24 h previously with indicated dose of compound 1. CD25 expression was measured by flow cytometry.
Study 13: Compound 1 was administered i.v. to C57bl/6 mice at 0.165 mg/kg to 5 mg/kg. CD25+ cell abundance was increased in animals receiving the highest dose of 5 mg/kg (FIG. 14), as was body weight in the same group (not shown).

Data set [6] concerns C57bl/6 mice. The data set can be described thus: MHC class I expression on CD11b+ splenocytes of mice after i.v. injection. It is filed as in vivo. The conditions noted are these: spleen 24 h later. The method, then: FIG. 15: % MHC class I high CD11 b+ cells in spleen of 3 individual C57bl/6 mice injected 24 h previously with indicated compound. MHC class I and CD11 b expression was measured by flow cytometry.
Study 14: Compound 1 or 2 was administered i.v. to C57bl/6 mice.

Entries after “also recorded” stand apart in the source; their conditions may differ. Bounds are passed on as bounds.

With `CC[C@H]1OC(=O)[C@H](C)[C@@H](O[C@H]2C[C@@](C)(OC)[C@@H](O)[C@H](C)O2)[C@H](C)[C@@H](O[C@@H]2O[C@H](C)C[C@H](N(C)C)[C@H]2O)[C@](C)(O)C[C@@H](C)CN(C)[C@H](C)[C@@H](O)[C@]1(C)O` [Azithromycin, reference compound], the “antibacterial activity (in words)” value in data set [1] is listed as “potent activity”. The “TLR2 stimulation (in words)” value on human TLR2 is given as “little or no stimulation”. In addition, the efflux ratio (commonly the permeability from basolateral to apical divided by that in the opposite direction, in the common usage) at 90 min, 10 μM in data set [2] was > 77.6. The Papp A→B (commonly how fast a substance crosses the layer from the apical side) at 90 min, 10 μM in data set [2] (apical to basolateral) was < 0.14 ×10⁻⁶ cm/s.
Take `CC[C@H]1OC(=O)[C@H](C)[C@@H](O[C@H]2C[C@@H](N(C)C)[C@H](O)[C@@H](C)O2)[C@H](C)[C@@H](O)[C@](C)(O)C[C@@H](C)CN(C)[C@H](C)[C@@H](O)[C@]1(C)O` [Compound 1]: the “antibacterial activity (in words)” value in data set [1] was “no antibacterial activity; also recorded: no or minimal antibacterial effect”. In addition, the “TLR2 stimulation (in words)” value at human TLR2 is reported as “stimulated TLR2 at concentrations down to 5 uM”. For the same compound, the efflux ratio at 90 min, 10 μM in data set [2] was 63.4. In the data set with Caco-2 cell monolayers, the “cell permeability compared with Azithromycin and EM703 (in words)” value was “more cell permeable”; the “efflux ratio compared with Azithromycin and EM703 (in words)” value is on record as “lower efflux ratio”. Besides, the IFN-gamma secretion entry in data set [3] (3 days) is on record as “induced secretion of high levels”. For the same compound, in [3] (6 days), the “IL-7 receptor α (CD127) on activated CMV specific CD8+ T cells” value is recorded as “increased expression”. Moreover, in the data set with PBMCs, the “IL-1beta secretion in PBMCs” value is “slightly”, the “IL-12p70 secretion from PBMCs” value was “secreted IL-12p70” and the “expression of RANTES in PBMCs” value is reported as “twofold upregulation”. Besides, in [4] (2 days), the “IL-1beta secretion in macrophages” value was “increased”, the “IL-12p70 secretion from macrophages” value is reported as “secreted IL-12p70” and the “expression of RANTES in macrophages” value is recorded as “high expression”. Also, in data set [4] (48 hours), the “IFN-gamma secretion from macrophages” value is “secreted IFN-gamma”. In addition, the “IL-1beta secretion in CD4+ T cells” value with CD4+ T cells is reported as “no IL-1beta was induced”. For the same compound, the “CD25+ cell abundance in blood” value in the data set on C57bl/6 mice [5] is given as “increased”. In the data set with C57bl/6 mice [6], the “splenocyte cells (CD11b+) with high MHC I expression” value is recorded as “increase”.
As to `CC[C@H]1OC(=O)[C@H](C)[C@@H](O[C@H]2C[C@@](C)(OC)[C@@H](O)[C@H](C)O2)[C@H](C)[C@@H](O[C@@H]2O[C@H](C)C[C@H](N(C)C)[C@H]2O)[C@](C)(O)C[C@@H](C)C(=O)[C@H](C)[C@@H](O)[C@]1(C)O` [Erythromycin, Erythromycin A, reference compound], in data set [1], the “antibacterial activity (in words)” value was “potent activity”. Moreover, on human TLR2, the “TLR2 stimulation (in words)” value was “little or no stimulation”.
